Patent US20220096664A1, “STABILIZED FORMULATIONS CONTAINING IODINATED CONTRAST AGENTS AND CYCLODEXTRINS” (Verrow Pharmaceuticals, Inc., priority 2012, published 2022)
Where two headings read alike, the source gives them in different places.

Columns and labels:
[1] = Photostability: iodide formed after visible light irradiation; assay type: physicochemical; details: 10 mM TRIS; for Iodide formed: 50 mM agent, pH 7.4, VIS 72 h
Protocol: (§1) Aqueous solutions comprising iodinated contrast agents were prepared and evaluated in a photolysis chamber as described in the ICH guidance document, Q1B Photostability Testing of New Drug Substances and Products, available from the US Food and Drug Administration, incorporated herein by reference. The solutions were placed in 1 cm×1 cm (3 mL) quartz cuvettes having 2 clear sides and 2 sides etched. Lids were placed on the cuvettes and sealed with a wrap of Parafilm® around the joint. The cuvettes were placed in a photolysis chamber, upright on a flat surface beneath and centered between two horizontal 24 inch fluorescent lamps, (GE, black light F20T12, 20 watt for ultraviolet, or Philips F20T12/CW, 20 watt for visible) placed 6 cm apart. The cuvettes were positioned such that their two clear sides were facing the two lamps.
(§2) Cuvettes were spaced ˜2 cm from each other, and no closer than 15 cm from the ends of the lamps. This positioning allowed reproducible light exposure to all cuvettes.
(§3) The lamps were switched on and the solutions irradiated for 18 to 24 hours for the ultraviolet (UV) lamps or 72 to 90 hours for the visible (VIS) light lamps. At the end of the selected irradiation time, the cuvettes were removed from the photolysis chamber and mixed by inversion 2-times. The caps were then removed and 40 microliter aliquots taken and diluted with 1 mL of an aqueous solution containing ˜0.9 mg/mL sodium thiosulfate. The thiosulfate solution converted any I2, IO3^−, and I3^− present in the solution tor such that total iodine species could be determined in one assay.
(§4) The diluted solutions were assayed by high pressure liquid chromatography (HPLC) using a 4.6×250 mm, C-18, 5 micron particle size, reversed phase column with detection at 280 nm for the contrast agent and 230 nm for the thiosulfate and the iodide ion (r). A mobile phase of 30:70 methanol:aqueous buffer (50 mM KH2PO4+7 mL/L 40% tetrabutyl ammonium hydroxide) at 0.75 mL/min was used for elution. Injection volume was 20 microliters. External standards were prepared containing each contrast agent, potassium iodide, and sodium thiosulfate solution and analyzed along with the irradiated samples. The results were reported as weight percentage iodide formed (mg iodide/mg contrast agent times 100).
(§5) The absorbance readings at 400 nm due to light exposure were plotted against time of exposure and the resulting correlation used to determine the UV and VIS light exposure. A change in absorbance reading of 0.45 was assumed equivalent to 200 watt hours/square meter for the UV light and a change of 0.51 was assumed equivalent to 1.2 million lux hours for the VIS light. The UV lamps provided 6.62 watts/square meter and the VIS lamps provided 7180 lux.
Aqueous solutions were prepared containing 473 mM iohexol (180 mg 1/mL), 10 mM tromethamine HCl buffer (TRIS), with and without various SCDs. The pH of the solutions was adjusted to 7.4 with 0.1N hydrochloric acid. Aliquots of the solutions were irradiated with ultraviolet (UV) light for 18 hours (119 watt hours/m^2) and other aliquots irradiated with visible (VIS) light for 90 hours (0.65 million lux hours). The solutions were then processed, analyzed and reported as in Example 2, with the exception that the iohexol peak was measured at 300 nm for both samples and standards. Results of the study are presented in the table below along with the SCD used. The SCDs included derivatives prepared from alpha, beta, and gamma CD to evaluate the effect of CD cavity size. Various substituents, including one derivative containing more than one type of substituent, and degrees of substitution (DS) were also evaluated.
Aqueous solutions were prepared containing 50 mM iodinated contrast agent, 10 mM tromethamine HCl buffer (TRIS), with and without sulfobutylether beta-cyclodextrin with an average degree of substitution-7 (SBE7-β-CD), or 2-hydroxypropyl beta-cyclodextrin with an average degree of substitution of ˜6.3 (HP6.3-β-CD) or ˜4.3 (HP4.3-β-CD). […]

[2] = assay type: physicochemical; details: for Iodide formed: 50 mM agent, 10 mM TRIS
Protocol: as §3, §4
(§6) Aqueous solutions were prepared containing 50 mM iodinated contrast agent, 10 mM tromethamine HCl buffer (TRIS), with and without sulfobutylether beta-cyclodextrin with an average degree of substitution-7 (SBE7-β-CD), or 2-hydroxypropyl beta-cyclodextrin with an average degree of substitution of ˜6.3 (HP6.3-β-CD) or ˜4.3 (HP4.3-β-CD). The iohexol solution was prepared by dissolving solid iohexol powder while the other solutions were prepared by diluting commercial formulated products and adding sufficient TRIS buffer to reach 10 mM. The pH of the solutions was adjusted to 7.4 with 0.1N hydrochloric acid.
(§7) Aliquots of the solutions were irradiated with visible light for 72 hours (0.52 million lux hours). Other aliquots were autoclaved for 20 minutes at 121° C., cooled to room temperature and then irradiated with ultraviolet light for 18 hours (119 watt hours/m2). The solutions were then processed, analyzed and reported as in Example 2, except that the chromatographic peaks of the contrast agents were evaluated at 300 nm for both samples and standards.
Aqueous solutions were prepared containing 50 mM iohexol, 0, 2.5, 5, 7.5, or 10 mM tromethamine HCl (TRIS) buffer, with and without 2.5 mM sulfobutylether beta-cyclodextrin with an average degree of substitution-7 (SBE7-β-CD). The pH of the solutions was adjusted to 7.4 with 0.1N hydrochloric acid and the solutions were transferred to glass vials. The vials were stoppered, crimp-capped and autoclaved for 20 minutes at 121° C. The pH of the autoclaved solutions was measured after the solutions were at room temperature.
Aliquots of the autoclaved solutions were irradiated with visible light for 72 hours (0.52 million lux hours) and other aliquots irradiated with ultraviolet light for 18 hours (119 watt hours/m2). The solutions were then processed, analyzed and reported as in Example 2, except that the chromatographic peak of the iohexol was evaluated at 300 nm for both samples and standards.
Aqueous formulations were prepared containing iodinated contrast agents at concentrations used commercially in medical procedures. Sulfobutylether-cyclodextrin, sodium salt, average degree of substitution ˜7 (SBE7CD) was added at varying agent:CD mole ratios. The formulations were placed in glass vials, sealed with rubber stoppers and aluminum crimps, and autoclaved at 121° C. for 20 minutes. […]

[3] = assay type: physicochemical
Protocol: as §3, §4, §6
as §7, with “standards. […]” for “standards.”
Aqueous formulations were prepared containing iodinated contrast agents at concentrations used commercially in medical procedures. Sulfobutylether-cyclodextrin, sodium salt, average degree of substitution ˜7 (SBE7CD) was added at varying agent:CD mole ratios. The formulations were placed in glass vials, sealed with rubber stoppers and aluminum crimps, and autoclaved at 121° C. for 20 minutes. Aliquots of the autoclaved solutions were exposed to UV light for 24 hours (159 watt hours/m^2 or VIS light for 72 hours (0.52 million lux hours) as in Example 2. The solutions were then processed, analyzed and reported as in Example 2, with the following two exceptions; 1) the chromatographic peaks of the contrast agents were evaluated at 300 nm for both samples and standards, and 2) only 20 microliter sample aliquots were taken and diluted for HPLC analysis due to the higher concentrations used in this study. Results of the study are presented in the table below along with the solution compositions.

[4] = contrast media solutions; cited from earlier work
[5] = Photostability: iodide formed after UV light irradiation; assay type: physicochemical; details: 473 mM iohexol, 10 mM TRIS, pH 7.4, UV 18 h
Protocol: as §1, §2, §3, §4, §5
Aqueous solutions were prepared containing 50 mM contrast agent by diluting commercially available solutions with water. Tromethamine HCl buffer (TRIS), was added to solutions as necessary to increase the TRIS content to that of the commercial product before dilution.
SCD was added to the solutions at various mole ratios and the pH of the solutions adjusted to 7.4 with 0.1N hydrochloric acid or 0.1N sodium hydroxide. The solutions were irradiated with UV light for 18 hours (119 watt hours/m^2) then processed, analyzed and reported as in Example 2. The SCDs evaluated were sulfobutyl ether beta-cyclodextrin with an average degree of substitution of 7 (SBE-704CD), and two 2-hydroxypropyl beta-cyclodextrin derivatives having 6.3 (HP-6.3n/CD) and 4.3 (HP-4.3-βCD) average degrees of substitution.
Aqueous solutions were prepared containing 50 mM contrast agent by diluting commercially available solutions with distilled water. Tromethamine HCl buffer (TRIS), was added to some solutions to increase the buffer content.
The solutions were divided and SBE-7-CD added to one aliquot at a contrast agent:SCD mole ratio of 1:1. The pH of the solutions was adjusted to 5, 6, 7, 7.4 or 8 with 0.1N hydrochloric acid or sodium hydroxide. […]

[6] = pH 7.4, autoclaved then UV 18 h, agent:SBE7-β-CD 1:0.1
[7] = pH 7.4, autoclaved then UV 18 h, no SCD (1:0)

## C[C@H](O)C(=O)Nc1c(I)c(C(=O)NC(CO)CO)c(I)c(C(=O)NC(CO)CO)c1I [Iopamidol, iopamidol]
[1]; agent:SBE7-β-CD 1:0.1
  Iodide formed: 0.355 wt %
[1]; no SCD (1:0)
  Iodide formed: 0.356 wt %
[2]
  stabilization against degradation from autoclaving+visible light irradiation: stabilized all formulations except iopamidol
[2]; [6]
  Iodide formed: 0.470 wt %
[2]; [7]
  Iodide formed: 0.540 wt %
[2]; pH 7.4, autoclaved then visible light, agent:SBE7-β-CD 1:0.1
  Iodide formed: 0.344 wt %
[2]; pH 7.4, autoclaved then visible light, no SCD (1:0)
  Iodide formed: 0.348 wt %
[2]; Iopamidol 200 mg I/mL, pH 7, agent:SBE7CD 1:0.05, autoclaved then UV 24 h
  Iodide Formed, UV: 0.145 wt %
[2]; Iopamidol 200 mg I/mL, pH 7, agent:SBE7CD 1:0.05, autoclaved then VIS 72 h
  Iodide Formed, VIS: 0.0574 wt %
[2]; Iopamidol 200 mg I/mL, pH 7, no SCD (1:0), autoclaved then UV 24 h
  Iodide Formed, UV: 0.150 wt %
[2]; Iopamidol 200 mg I/mL, pH 7, no SCD (1:0), autoclaved then VIS 72 h
  Iodide Formed, VIS: 0.0570 wt %
[3]; Iopamidol 200 mg I/mL, pH 7, agent:SBE7CD 1:0.05
  Iodide Formed, Autoclaved: 0.00338 wt %
[3]; Iopamidol 200 mg I/mL, pH 7, no SCD (1:0)
  Iodide Formed, Autoclaved: 0.00347 wt %

## CNC(=O)c1c(I)c(C(=O)NCC(=O)Nc2c(I)c(C(=O)O)c(I)c(C(=O)NCCO)c2I)c(I)c(N(C)C(C)=O)c1I [Ioxaglate, ioxaglate]
[1]; agent:SBE7-β-CD 1:0.1
  Iodide formed: 0.211 wt %
[1]; no SCD (1:0)
  Iodide formed: 0.231 wt %
[2]; [6]
  Iodide formed: 0.332 wt %
[2]; [7]
  Iodide formed: 0.392 wt %
[2]; Ioxaglate 320 mg I/mL, pH 7.0, agent:SBE7CD 1:0.05, autoclaved then UV 24 h
  Iodide Formed, UV: 0.0845 wt %
[2]; Ioxaglate 320 mg I/mL, pH 7.0, agent:SBE7CD 1:0.05, autoclaved then VIS 72 h
  Iodide Formed, VIS: 0.0175 wt %
[2]; Ioxaglate 320 mg I/mL, pH 7.0, no SCD (1:0), autoclaved then UV 24 h
  Iodide Formed, UV: 0.114 wt %
[2]; Ioxaglate 320 mg I/mL, pH 7.0, no SCD (1:0), autoclaved then VIS 72 h
  Iodide Formed, VIS: 0.0197 wt %
[3]; Ioxaglate 320 mg I/mL (393 mg ioxaglate meglumine and 196 mg ioxaglate sodium), pH 7.0, no SCD (1:0)
  Iodide Formed, Autoclaved: 0.00457 wt %
[3]; Ioxaglate 320 mg I/mL, pH 7.0, agent:SBE7CD 1:0.05
  Iodide Formed, Autoclaved: 0.00329 wt %

## CNC(=O)c1c(I)c(NC(C)=O)c(I)c(C(=O)O)c1I [iothalamate sodium]
[4]
  degradation in solution after exposure to ultraviolet light: formation of iodine and iodide ions

## sulfobutylether 3.5-ethylether 3.5-beta-cyclodextrin [SBE-EE-βCD]
[1]; 473 mM iohexol, pH 7.4, VIS 90 h, iohexol:SCD 1:0.05
  I- formed, VIS: 0.0584 wt %
[1]; 473 mM iohexol, pH 7.4, VIS 90 h, iohexol:SCD 1:0.05 vs control
  % Change in iodide degradants (Vis): −5.3% (Vis)
[5]; iohexol:SCD 1:0.05
  I- formed, UV: 0.0825 wt %
[5]; iohexol:SCD 1:0.05 vs control
  % Change in iodide degradants (UV): −22.9% (UV)
